Results reported in US9409868B2, “Inhibitors of rho associated protein kinases (ROCK) and methods of use” (H. LEE MOFFITT CANCER CENTER AND RESEARCH INSTITUTE, INC., priority 2012, dated 2016).
Read-outs that look alike come from different tables or passages of the source.

Assays:
ROCK1 = ROCK1 (Homo sapiens (Human), UniProt Q13464); assay: Z-Lyte FRET kinase assay, ROCK1; type: biochemical
Text: (§1) Kinase Assay. A robust FRET-based, enzyme-coupled assay format, Z-Lyte® Kinase Assay Ser/[…] Peptide Kit (Invitrogen, cat. PV3793), was employed in this study to monitor inhibition of ROCK1 (Invitrogen, cat. PV3691) and ROCK2 (Invitrogen, cat. PV3759) enzyme activities. […] The substrate contains both coumarin and fluorescein and only uncleaved […] substrate will undergo FRET. […] A known inhibitor, Y-27632 (Tocris Bioscience, cat. 1254), is used as a control compound.

ROCK2 [1] = target: T1, ROCK2 (Homo sapiens (Human), UniProt O75116); assay: Z-Lyte FRET kinase assay, ROCK2; type: biochemical
Text: as §1

Aurora-A = Aurora-A (Homo sapiens (Human), UniProt O14965); assay: Aurora-A inhibition (selectivity); type: biochemical; settings: FIG. 2
ROCK2 [2] = target: T1, ROCK2; settings: Feng et al. 2008; read-out: ROCK2 enzymatic activity IC50 (reported); cited from earlier work
[3] = test system: phosphorylation of MLC2 (ROCK substrate) in MDA-MB-231 cells; assay: Western blot of MLC2 phosphorylation in MDA-MB-231 breast cancer cells; type: cell-based, human; settings: 1 hr, MDA-MB-231, FIG. 4
Description: Western Blot Analysis. MDA-MB-468, MDA-MB-231, MCF-7, DU-145, H460, A549, HT29 and HCT116 cells (ATCC, Rockville, Md., USA) were plated in 6-well tissue culture plate. The cells were then treated next day with different concentrations of the RKIs for 1 h. After incubation, the cells were harvested, lysed, quantified and blotted for P-MLC2 (Cat no. 3671S), total-MLC2 (Cat no. 3672S), P-MEK (S298) (Cat no. 9128S), total-MEK (Cat no. 9122S), P-S6 (Cat no. 2155S), total-S6 (2217S), P-Erk (Cat no. 9101L), total Erk (Cat no. 9102L), P-Akt (Cat no. 9271L), total Akt (Cat no. 9272L) (Cell Signaling, Danvers, Mass., USA) and tubulin (Cat no. 5168) (Sigma, St Louis, Mo., USA) antibodies as described by us previously

ROCK2 [4] = target: T1, ROCK2; settings: different assay conditions; read-out: ROCK 2 IC50 (previously reported); cited from earlier work
NIH 3T3 cells = assay: Cell morphology assay (phalloidin staining) in starved NIH 3T3 cells; type: cell-based; set-up: dose or concentration left out as unconfirmed; settings: starved NIH 3T3, FIG. 6
Description: Cell Morphology Assay. NIH 3T3 cells were plated at 8000 cells per well in 8-chamber slide in serum-free media (serum starvation) for 24 h. After serum starvation, the cells were treated with vehicle or the RKIs for 1 h. After treatment, the cells were stimulated with […] LPA, 200 ng/ml bradykinin or 30 ng/ml PDGF for 30 min. After stimulation, the cells were fixed with 4% paraformaldehyde, permeabilized using 0.1% Triton X-100 and stained with Texas-Red phalloidin (Cat no. T7471) (Invitrogen, Eugene, Oreg., USA) and DAPI (40,6 diamidino-2-phenylindole: counterstains DNA) (Cat no. H-1200; Vector Laboratories, Burlingame, Calif., USA). The cells were imaged using Zeiss Upright Fluorescence Microscope.

MDA-MB-231 cells [5] = assay: Soft agar anchorage-independent growth assay; type: cell-based, human
Description: Soft Agar Assay. MDA-MB-231 cells were seeded in a 12-well tissue culture plate at 1200 cells per well in regular growth media and 0.3% agar. The cells were treated with different doses of RKI-11 and RKI-18, allowed to grow for 4 weeks, after which the colonies were stained overnight with 1 mg/ml MTT and counted.

MDA-MB-231 cells [6] = assay: MTT assay, anchorage-dependent proliferation; type: cell-based, human
Description: MTT Assay. MTT assay was performed to determine the effects of RKIs on anchoragedependent cell proliferation. Briefly, cells were plated in a 96-well tissue culture plate (1200 cells per well) and incubated for 24 h. After incubation, the cells were treated with vehicle or increasing concentrations of RKI-11 or RKI-18 ([…]). After 72 h incubation, freshly prepared MTT (2 mg/ml) was added to each well and incubated for 3 h. After incubation, the plates were read at 540 nm.

MDA-MB-231 cells [7] = assay: Apoptosis by caspase 3 activation and PARP cleavage; type: cell-based, human; settings: up to 30 mM (so in the source)
MDA-MB-231 cells [8] = assay: Wound-healing scratch migration assay; type: cell-based, human; settings: for inhibition of migration (wound-healing scratch assay): FIG. 8a
Description: Wound-Healing-Migration Assay. MDA-MB-231 cells were seeded at 4_105 cells per well in a 6-well plate and allowed to grow overnight at 37 1C and 5% CO2. The cells were starved for 24 h and scratched. The cells were then treated with different concentrations of RKIs in regular growth media for 24 h. Images of the scratch were acquired at 0 h and 24 h.

MDA-MB-231 cells [9] = assay: Matrigel Transwell invasion assay; type: cell-based, human; settings: for inhibition of invasion (figure legend): FIG. 8
Description: Invasion Assay. Invasion assay was performed in Corning Transwell inserts coated with Matrigel. MDA-MB-231 cells were seeded at 3.5_105 and allowed to grow overnight in a 6-well plate. The cells were treated with either vehicle or different doses of RKIs for 24 h. After treatment, the cells were trypsinized, resuspended and plated in the inserts. The bottom chamber contained 20% FBS as the ‘chemoattractant’. The cells were kept in the incubator for 48 h. After incubation, the cells were stained and membrane was quantified.

Chain of ROCK1 (Q13464 whole entry): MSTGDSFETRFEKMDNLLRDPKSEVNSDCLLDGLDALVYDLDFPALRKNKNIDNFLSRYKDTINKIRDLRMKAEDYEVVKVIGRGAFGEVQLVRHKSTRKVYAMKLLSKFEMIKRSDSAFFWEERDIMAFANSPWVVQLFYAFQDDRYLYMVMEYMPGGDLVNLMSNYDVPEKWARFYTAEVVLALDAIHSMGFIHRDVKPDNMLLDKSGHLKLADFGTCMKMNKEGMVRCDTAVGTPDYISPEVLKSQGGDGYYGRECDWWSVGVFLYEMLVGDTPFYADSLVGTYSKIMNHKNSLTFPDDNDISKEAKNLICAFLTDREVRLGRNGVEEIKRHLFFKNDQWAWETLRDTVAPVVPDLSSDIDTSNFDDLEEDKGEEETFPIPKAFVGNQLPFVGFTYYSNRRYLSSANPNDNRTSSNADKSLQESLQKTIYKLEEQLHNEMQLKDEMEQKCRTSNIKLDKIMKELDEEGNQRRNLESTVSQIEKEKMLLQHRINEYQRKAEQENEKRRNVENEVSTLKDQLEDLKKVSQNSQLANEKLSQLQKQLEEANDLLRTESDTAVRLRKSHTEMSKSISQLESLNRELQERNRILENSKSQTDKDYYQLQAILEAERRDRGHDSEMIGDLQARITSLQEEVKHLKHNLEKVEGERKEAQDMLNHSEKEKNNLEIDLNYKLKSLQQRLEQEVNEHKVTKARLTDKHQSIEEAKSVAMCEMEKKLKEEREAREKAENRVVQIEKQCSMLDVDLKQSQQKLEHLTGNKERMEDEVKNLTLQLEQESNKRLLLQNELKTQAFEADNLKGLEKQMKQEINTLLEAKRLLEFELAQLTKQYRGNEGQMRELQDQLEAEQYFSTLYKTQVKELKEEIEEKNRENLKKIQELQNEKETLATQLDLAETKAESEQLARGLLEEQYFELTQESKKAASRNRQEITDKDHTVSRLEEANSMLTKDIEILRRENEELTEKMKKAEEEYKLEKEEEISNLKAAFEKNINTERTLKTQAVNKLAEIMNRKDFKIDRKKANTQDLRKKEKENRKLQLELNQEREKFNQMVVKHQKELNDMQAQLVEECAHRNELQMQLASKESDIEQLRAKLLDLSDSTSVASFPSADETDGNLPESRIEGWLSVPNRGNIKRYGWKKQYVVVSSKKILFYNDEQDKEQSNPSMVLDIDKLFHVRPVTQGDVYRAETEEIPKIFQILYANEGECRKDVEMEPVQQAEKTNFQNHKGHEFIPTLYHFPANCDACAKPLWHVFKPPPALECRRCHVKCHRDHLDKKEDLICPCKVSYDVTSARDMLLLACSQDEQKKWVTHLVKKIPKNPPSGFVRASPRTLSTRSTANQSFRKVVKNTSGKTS
Chain of Aurora-A (O14965 whole entry): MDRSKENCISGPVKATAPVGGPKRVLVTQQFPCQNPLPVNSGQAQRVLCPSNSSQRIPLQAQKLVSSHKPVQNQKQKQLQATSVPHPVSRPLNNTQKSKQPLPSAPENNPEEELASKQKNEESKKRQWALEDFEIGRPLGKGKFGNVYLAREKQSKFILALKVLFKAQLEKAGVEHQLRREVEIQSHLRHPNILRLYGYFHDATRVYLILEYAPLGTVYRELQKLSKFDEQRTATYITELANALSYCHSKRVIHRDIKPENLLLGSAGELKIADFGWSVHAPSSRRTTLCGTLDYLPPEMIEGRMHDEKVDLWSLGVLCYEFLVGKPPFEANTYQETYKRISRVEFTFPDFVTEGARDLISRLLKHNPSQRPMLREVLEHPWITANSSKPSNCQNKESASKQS
T1 sequence (O75116 whole entry, species assumed): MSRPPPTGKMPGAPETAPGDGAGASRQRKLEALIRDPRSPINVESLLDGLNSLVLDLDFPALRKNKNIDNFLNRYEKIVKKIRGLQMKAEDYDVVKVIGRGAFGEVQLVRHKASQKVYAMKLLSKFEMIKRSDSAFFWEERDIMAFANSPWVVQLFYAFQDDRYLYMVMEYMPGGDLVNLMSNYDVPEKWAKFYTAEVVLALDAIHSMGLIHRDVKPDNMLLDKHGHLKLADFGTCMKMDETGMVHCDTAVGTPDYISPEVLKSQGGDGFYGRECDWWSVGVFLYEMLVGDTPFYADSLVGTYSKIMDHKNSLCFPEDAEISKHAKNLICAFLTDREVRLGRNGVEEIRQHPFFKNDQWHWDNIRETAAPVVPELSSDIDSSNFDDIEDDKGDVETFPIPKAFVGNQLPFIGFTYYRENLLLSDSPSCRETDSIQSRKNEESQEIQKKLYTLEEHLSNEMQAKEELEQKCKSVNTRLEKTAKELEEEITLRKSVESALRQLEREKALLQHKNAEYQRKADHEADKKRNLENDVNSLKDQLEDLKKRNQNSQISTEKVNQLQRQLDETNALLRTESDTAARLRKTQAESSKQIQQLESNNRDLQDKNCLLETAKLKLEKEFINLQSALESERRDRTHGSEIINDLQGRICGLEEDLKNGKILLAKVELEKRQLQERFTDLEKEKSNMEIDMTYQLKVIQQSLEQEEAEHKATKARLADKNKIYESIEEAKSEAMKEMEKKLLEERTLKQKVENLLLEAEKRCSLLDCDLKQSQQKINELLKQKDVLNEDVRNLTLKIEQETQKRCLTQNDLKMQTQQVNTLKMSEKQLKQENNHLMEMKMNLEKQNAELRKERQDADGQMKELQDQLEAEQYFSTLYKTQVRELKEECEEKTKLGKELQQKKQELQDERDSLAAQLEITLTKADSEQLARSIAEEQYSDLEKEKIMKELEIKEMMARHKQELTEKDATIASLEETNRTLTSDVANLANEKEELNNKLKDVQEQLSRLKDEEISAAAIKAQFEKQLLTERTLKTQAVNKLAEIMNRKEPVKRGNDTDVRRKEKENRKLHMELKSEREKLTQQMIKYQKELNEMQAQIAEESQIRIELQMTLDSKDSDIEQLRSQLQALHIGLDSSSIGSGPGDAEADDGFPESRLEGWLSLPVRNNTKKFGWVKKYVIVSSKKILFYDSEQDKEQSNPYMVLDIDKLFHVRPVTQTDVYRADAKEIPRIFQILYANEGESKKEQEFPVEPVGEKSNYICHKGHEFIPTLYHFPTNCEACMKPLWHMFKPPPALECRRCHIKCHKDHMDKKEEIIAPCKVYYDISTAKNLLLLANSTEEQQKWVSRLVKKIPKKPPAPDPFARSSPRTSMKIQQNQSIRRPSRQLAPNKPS

| Compound | IC50 (ROCK1; triplicate experiments) | IC50 (ROCK2 [1]; triplicate experiments) | other results |
| --- | --- | --- | --- |
| O=C(NCCCc1ccccc1)Nc1ccc2[nH]ncc2c1 [Compound 19, 1-(1H-indazol-5-yl)-3-(3-phenylpropyl)urea] | 2460 ± 550 nM | 1070 nM | – |
| CN(CCc1ccccc1)C(=O)Nc1ccc2[nH]ncc2c1 [Compound 13, 3-(1H-Indazol-5-yl)-1-methyl-1-phenethylurea] | 21500 ± 7300 nM | 7500 ± 1700 nM | – |
| O=C(Nc1nc(-c2ccncc2)cs1)C1COc2ccccc2O1 (stereo not shown) [CID5056270, reference compound] | – | – | IC50 (ROCK1; values in nM): 13 nM; IC50 (ROCK2 [1]; values in nM): 0.56 nM; IC50 (Aurora-A): > 100 µM; IC50 (ROCK2 [2]): < 3 nM |
| CN(C)C(=O)Nc1ccc2[nH]ncc2c1 [Compound 10, 3-(1H-Indazol-5-yl)-1,1-dimethylurea] | 59000 nM | 36100 ± 5900 nM | – |
| O=C(Nc1ccc(-c2ccncc2)cc1)N[C@H](CO)Cc1ccccc1 [Compound 27, (S)-1-(1-Hydroxy-3-phenylpropan-2-yl)-3-(4-(pyridin-4-yl)phenyl)urea] | 31000 ± 10500 nM | 32900 ± 4670 nM | – |
| O=C(NCc1ccccc1)Nc1ccc(-c2ccncc2)cc1 [Compound 22, 1-Benzyl-3-(4-(pyridin-4-yl)phenyl)urea] | 1150 nM | 260 nM | – |
| O=C(Nc1ccc(-c2ccncc2)cc1)N[C@@H](CO)c1ccccc1 [Compound 23, (R)-1-(2-Hydroxy-1-phenylethyl)-3-(4-(pyridin-4-yl)phenyl)urea] | 9000 nM | 8000 nM | LE (Ligand Efficiency), ROCK1 (ROCK1): 0.28; LE (Ligand Efficiency), ROCK2 (ROCK2 [1]): 0.28; IC50 (ROCK2 [1]; values in nM): 7520 nM; P-MLC2 levels ([3]; 1 μM): no effect; P-MLC2 levels ([3]; 10 μM): less potent than 24 |
| O=C(NCc1ccccc1)Nc1ccc2[nH]ncc2c1 [Compound 12, 1-Benzyl-3-(1H-indazol-5-yl)urea] | 14000 nM | 5500 ± 3100 nM | IC50 (ROCK2 [4]): 260 nM |
| CC(=O)Nc1ccc2[nH]ncc2c1 [N-(1H-indazole-5-yl)acetamide] | 65000 nM | 40000 nM | – |
| O=C(NCCc1ccc(Cl)cc1)Nc1ccc2[nH]ncc2c1 [Compound 17, 1-(4-Chlorophenethyl)-3-(1H-indazol-5-yl)urea] | 2200 ± 1000 nM | 1100 ± 300 nM | – |
| O=C(Nc1ccncc1)c1cccnc1 [Compound 3, N-(Pyridin-4-yl)nicotinamide] | 75500 nM | 55900 ± 11300 nM | – |
| O=C(NCC(O)c1ccccc1)Nc1ccc2[nH]ncc2c1 (stereo not shown) [Compound 15, 1-(2-Hydroxy-2-phenylethyl)-3-(1H-indazol-5-yl)urea] | 2900 ± 800 nM | – | IC50 (ROCK2 [1]): 1500 ± 400 nM |
| COc1ccc(CCNC(=O)Nc2ccc3[nH]ncc3c2)cc1 [Compound 16, 1-(1H-Indazol-5-yl)-3-(4-methoxyphenethyl)urea] | 2600 ± 600 nM | 800 ± 300 nM | – |
| Nc1ccc2[nH]ncc2c1 [Compound 8, 5-Aminoindazole] | – | – | IC50 (ROCK1): 181000 nM; IC50 (ROCK2 [1]): 120000 nM |
| O=C(NCCc1ccccc1)Nc1ccc(-c2ccncc2)cc1 [Compound 25, 1-Phenethyl-3-(4-(pyridin-4-yl)phenyl)urea] | 2610 ± 410 nM | 19800 ± 3290 nM | – |
| O=C(Nc1ccc(-c2ccncc2)cc1)N[C@H](CO)c1ccccc1 [Compound 24, (S)-1-(2-Hydroxy-1-phenylethyl)-3-(4-(pyridin-4-yl)phenyl)urea] | 1700 nM | 100 nM | LE (Ligand Efficiency), ROCK1 (ROCK1): 0.31; fold difference for ROCK1 (ROCK1; 24 (S) versus 23 (R)): five fold; LE (Ligand Efficiency), ROCK2 (ROCK2 [1]): 0.38; fold more kinase inhibitory activity for ROCK 2 (ROCK2 [1]; 24 (S) versus 23 (R)): 75 fold; P-MLC2 levels ([3]; 1 μM): greatly decreased; P-MLC2 levels ([3]; 10 μM): greatly decreased |
| O=C(Nc1ccncc1)c1cncc(Br)c1 [Compound 5, 5-Bromo-N-(pyridin-4-yl)nicotinamide] | 270000 ± 51000 nM | 357000 ± 35300 nM | – |
| O=C(NCCc1ccccc1)Nc1ccc2[nH]ncc2c1 [Compound 18, 1-(1H-Indazol-5-yl)-3-phenethylurea] | – | – | P-MLC2 levels ([3]; 10 μM): greatly decreased; LPA-induced stress fiber formation (NIH 3T3 cells; listed as RKI-18): inhibits; PDGF-induced lamelipodia formation (NIH 3T3 cells; listed as RKI-18): inhibits; bradykinin-induced filopodia formation (NIH 3T3 cells; listed as RKI-18): inhibits; inhibition of anchorage-independent growth (figure legend) (MDA-MB-231 cells [5]; MDA-MB-231, FIG. 7): inhibits; IC50 (MDA-MB-231 cells [6]; Homo sapiens, MDA-MB-231, 72 h, unit given as mM): 0.032 mM; potency at anchorage-dependent proliferation compared to anchorage-independent growth (MDA-MB-231 cells [6]; MDA-MB-231): four-fold less potent; induction of apoptosis (caspase 3 activation and PARP cleavage) (MDA-MB-231 cells [7]): did not induce apoptosis; inhibition of migration (figure legend) (MDA-MB-231 cells [8]; FIG. 8): inhibits; inhibition of migration (wound-healing scratch assay) (MDA-MB-231 cells [8]; concentration-dependent manner starting at 3 mM (so in the source)): inhibited the migration; inhibition of invasion (figure legend) (MDA-MB-231 cells [9]): inhibits |
| O=C(Nc1ccccc1)Nc1ccc2[nH]ncc2c1 [Compound 11, 1-(1H-Indazol-5-yl)-3-phenylurea] | 157000 nM | 62000 nM | LPA-induced stress fiber formation (NIH 3T3 cells): not; bradykinin-induced filopodia formation (NIH 3T3 cells): not; effect on anchorage independent growth (MDA-MB-231 cells [5]; at 60 mM (so in the source)): little effect; inhibition of migration (wound-healing scratch assay) (MDA-MB-231 cells [8]; at 60 mM (so in the source)): did not inhibit; inhibition of invasion (figure legend) (MDA-MB-231 cells [9]): not; effect on cell invasion (MDA-MB-231 cells [9]; at 60 mM (so in the source), FIG. 8b): no effect |
| O=C(Nc1ccc2[nH]ncc2c1)N[C@H](CO)Cc1ccccc1 [Compound 14, (S)-1-(1-Hydroxy-3-phenylpropan-2-yl)-3-(1H-indazol-5-yl)urea] | 4600 ± 2100 nM | 2300 ± 600 nM | – |
| O=C(Nc1ccc(-c2ccncc2)cc1)N[C@@H](CO)Cc1ccccc1 [Compound 26, (R)-1-(1-Hydroxy-3-phenylpropan-2-yl)-3-(4-(pyridin-4-yl)phenyl)urea] | 1410 nM | 5360 nM | – |
| O=C(Nc1ccncc1)c1cnccc1Cl [Compound 4, 4-Chloro-N-(pyridin-4-yl)nicotinamide] | 72500 ± 6800 nM | 221000 ± 25700 nM | – |
